Source: patent US12172971B1, “N′-(2-naphthoyloxy)-2-(benzo[d]oxazol-2-yl)acetimidamide as an antimicrobial compound” (priority 2023, dated 2024)

System: Bacillus cereus, Staphylococcus aureus, Pseudomonas aeruginosa, Escherichia coli, Aspergillus flavus, Chrysosporium keratinophilum
Test: agar plate disc-diffusion antimicrobial test
Type: cell-based
Conditions: discs wetted with 10 μL of 10 mg/mL in DMSO; 37° C., 48 h, 72 h for fungi; gram positive and gram-negative bacteria and fungi
Procedure: The agar plate disc-diffusion method was applied. Sterilized filter papers (6 mm in diameter) were wetted with 10 μL of a solution of N′-(2-naphthoyloxy)-2-(benzo[d]oxazol-2-yl)acetimidamide (3) to be tested, containing 10 mg/mL in DMSO, and the discs were allowed to air dry. The discs were then placed onto the surface of agar plates (nutrient agar for bacteria and Sabouraud's dextrose agar for fungi) seeded with the test organism. Each plate contained 15 mL of the agar medium, previously seeded with 0.2 mL of the broth culture of each organism pregrown for 18 hours. The plates were incubated at 37° C. for 48 h, and 72 h for fungi. The inhibition zones were measured in mm. Discs impregnated with DMSO were used as a control, and its inhibition zone was subtracted from the tested compound actual inhibition zone. […] The antibacterial activity was screened against gram positive bacteria namely Bacillus cereus and Staphylococcus aureus and gram-negative bacterial strains namely Pseudomonas aeruginosa and Escherichia coli, while the antifungal activity was screened against Aspergillus flavus and Chrysosporium keratinophilum.

## N/C(Cc1nc2ccccc2o1)=N\OC(=O)c1ccc2ccccc2c1 [compound 3, N′-(2-naphthoyloxy)-2-(benzo[d]oxazol-2-yl)acetimidamide]
  antimicrobial activity (disc-diffusion inhibition zones): high antimicrobial activities
